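96-well plates; 48 h exposure; 5 concentrations. Endpoints by linear interpolation between flanking doses. Not reached: highest tested concentration assigned. GI50 = concentration required for 50% inhibition of growth. TGI marks complete inhibition of growth.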
What was measured:
Test in all cases: DTP human tumour cell line panel, 48 h
[1] = system: 786-0 renal
[2] = system: A498 renal
[3] = system: A549 NSCLC
[4] = system: ACHN renal
[5] = system: BT-549 breast
[6] = system: CAKI-1 renal
[7] = system: CCRF-CEM leukemia
[8] = system: COLO 205 colon
[9] = system: DU-145 prostate
[10] = system: EKVX NSCLC
[11] = system: HCC-2998 colon
[12] = system: HCT-116 colon
[13] = system: HCT-15 colon
[14] = system: HOP-62 NSCLC
[15] = system: HS 578T breast
[16] = system: HT29 colon
[17] = system: IGROV1 ovarian
[18] = system: K-562 leukemia
[19] = system: KM12 colon
[20] = system: LOX IMVI melanoma
[21] = system: M14 melanoma
[22] = system: MALME-3M melanoma
[23] = system: MCF7 breast
[24] = system: MDA-MB-231 breast
[25] = system: MDA-MB-435
[26] = system: MOLT-4 leukemia
[27] = system: NCI-H226 lung
[28] = system: NCI-H23 lung
[29] = system: NCI-H460 lung
[30] = system: NCI-H522 lung
[31] = system: NCI/ADR-RES ovarian
[32] = system: OVCAR-4 ovarian
[33] = system: OVCAR-5 ovarian
[34] = system: OVCAR-8 ovarian
[35] = system: PC-3 prostate
[36] = system: RPMI-8226 leukemia
[37] = system: RXF 393 renal
[38] = system: SF-268 CNS
[39] = system: SF-295 CNS
[40] = system: SF-539 CNS
[41] = system: SK-MEL-2 melanoma
[42] = system: SK-MEL-28 melanoma
[43] = system: SK-MEL-5 melanoma
[44] = system: SK-OV-3 ovarian
[45] = system: SN12C renal
[46] = system: SNB-19 CNS
[47] = system: SNB-75 CNS
[48] = system: SR leukemia
[49] = system: SW-620 colon
[50] = system: T-47D breast
[51] = system: TK-10 renal
[52] = system: U251 CNS
[53] = system: UACC-257 melanoma
[54] = system: UACC-62 melanoma
[55] = system: UO-31 renal
[56] = system: HL-60(TB) leukemia
[57] = system: OVCAR-3 ovarian

Compound: O=c1c2cc(-c3ccc(F)cc3F)ccc2n(O)c(=O)n1-c1cccc(C(F)(F)F)c1
- GI50 [1]: 2.15 µM
- TGI [1]: 5.66 µM
- GI50 [2]: 0.347 µM
- TGI [2]: 1.26 µM
- GI50 [3]: 2.95 µM
- TGI [3]: 20.1 µM
- GI50 [4]: 2.08 µM
- TGI [4]: 10.4 µM
- GI50 [5]: 0.437 µM
- TGI [5]: 1.58 µM
- GI50 [6]: 1.61 µM
- TGI [6]: 6.02 µM
- GI50 [7]: 3.12 µM
- TGI [7]: > 100 µM
- GI50 [8]: 1.94 µM
- TGI [8]: 4.05 µM
- GI50 [9]: 2.48 µM
- TGI [9]: 49.1 µM
- GI50 [10]: 2.35 µM
- TGI [10]: 8.47 µM
- GI50 [11]: 2.51 µM
- TGI [11]: 9.9 µM
- GI50 [12]: 0.42 µM
- TGI [12]: 1.61 µM
- GI50 [13]: 0.435 µM
- TGI [13]: 2.28 µM
- GI50 [14]: 1.8 µM
- TGI [14]: 4.34 µM
- GI50 [15]: 0.837 µM
- TGI [15]: 4.42 µM
- GI50 [16]: 4.3 µM
- TGI [16]: 26.8 µM
- GI50 [17]: 2.03 µM
- TGI [17]: 25.4 µM
- GI50 [18]: 0.424 µM
- TGI [18]: 35 µM
- GI50 [19]: 2.16 µM
- TGI [19]: 7.07 µM
- GI50 [20]: 1.22 µM
- TGI [20]: 2.94 µM
- GI50 [21]: 0.773 µM
- TGI [21]: 3.47 µM
- GI50 [22]: 1.51 µM
- TGI [22]: 5.39 µM
- GI50 [23]: 1.61 µM
- TGI [23]: 7.12 µM
- GI50 [24]: 1.59 µM
- TGI [24]: 6.36 µM
- GI50 [25]: 1.56 µM
- TGI [25]: 7.67 µM
- GI50 [26]: 0.419 µM
- TGI [26]: 2.13 µM
- GI50 [27]: 1.01 µM
- TGI [27]: 3.64 µM
- GI50 [28]: 0.722 µM
- TGI [28]: 5.3 µM
- GI50 [29]: 0.668 µM
- TGI [29]: 5.23 µM
- GI50 [30]: 0.369 µM
- TGI [30]: 2.55 µM
- GI50 [31]: 1.17 µM
- TGI [31]: 10.5 µM
- GI50 [32]: 2.19 µM
- TGI [32]: > 100 µM
- GI50 [33]: 3.38 µM
- TGI [33]: 92.9 µM
- GI50 [34]: 1.08 µM
- TGI [34]: 8.89 µM
- GI50 [35]: 1.8 µM
- TGI [35]: 6.95 µM
- GI50 [36]: 1.02 µM
- TGI [36]: 5.85 µM
- GI50 [37]: 1.05 µM
- TGI [37]: 3.14 µM
- GI50 [38]: 1.75 µM
- TGI [38]: 15.5 µM
- GI50 [39]: 1.65 µM
- TGI [39]: 3.45 µM
- GI50 [40]: 1.47 µM
- TGI [40]: 7.94 µM
- GI50 [41]: 0.534 µM
- TGI [41]: 2.29 µM
- GI50 [42]: 1.26 µM
- TGI [42]: 10 µM
- GI50 [43]: 0.263 µM
- TGI [43]: 0.708 µM
- GI50 [44]: 1.13 µM
- TGI [44]: 3.88 µM
- GI50 [45]: 0.683 µM
- TGI [45]: 5.41 µM
- GI50 [46]: 0.682 µM
- TGI [46]: > 100 µM
- GI50 [47]: 1.51 µM
- TGI [47]: 6.45 µM
- GI50 [48]: 0.259 µM
- TGI [48]: 1.88 µM
- GI50 [49]: 2.05 µM
- TGI [49]: 10.5 µM
- GI50 [50]: 1.49 µM
- TGI [50]: 5.76 µM
- GI50 [51]: 4.19 µM
- TGI [51]: 9.17 µM
- GI50 [52]: 1.86 µM
- TGI [52]: 15.7 µM
- GI50 [53]: 1.01 µM
- TGI [53]: 4.48 µM
- GI50 [54]: 0.323 µM
- TGI [54]: 1.31 µM
- GI50 [55]: 2.23 µM
- TGI [55]: 9.3 µM

Compound: CCCCOc1ccc(S(=O)(=O)N2CCN(c3nc(C)cc(N4CCOCC4)n3)CC2)cc1
- GI50 [3]: 3.85 µM
- TGI [3]: > 100 µM
- GI50 [6]: 2.11 µM
- TGI [6]: > 100 µM
- GI50 [9]: 1.01 µM
- TGI [9]: > 100 µM
- GI50 [12]: 1.44 µM
- TGI [12]: > 100 µM
- GI50 [13]: 2.09 µM
- TGI [13]: > 100 µM
- GI50 [56]: 0.42 µM
- TGI [56]: > 100 µM
- GI50 [14]: > 100 µM
- TGI [14]: > 100 µM
- GI50 [15]: > 100 µM
- TGI [15]: > 100 µM
- GI50 [16]: 0.888 µM
- TGI [16]: 6.23 µM
- GI50 [17]: 1.09 µM
- TGI [17]: > 100 µM
- GI50 [19]: 3.12 µM
- TGI [19]: > 100 µM
- GI50 [20]: 0.294 µM
- TGI [20]: 0.942 µM
- GI50 [22]: > 100 µM
- TGI [22]: > 100 µM
- GI50 [23]: > 100 µM
- TGI [23]: > 100 µM
- TGI [24]: > 100 µM
- GI50 [25]: 1.45 µM
- TGI [25]: > 100 µM
- GI50 [26]: 2.27 µM
- TGI [26]: > 100 µM
- GI50 [29]: 1.67 µM
- TGI [29]: > 100 µM
- GI50 [31]: 2.45 µM
- TGI [31]: > 100 µM
- GI50 [57]: > 100 µM
- TGI [57]: > 100 µM
- GI50 [33]: > 100 µM
- TGI [33]: > 100 µM
- GI50 [35]: 4.54 µM
- TGI [35]: > 100 µM
- GI50 [36]: 2.64 µM
- TGI [36]: > 100 µM
- GI50 [38]: 2.32 µM
- TGI [38]: > 100 µM
- GI50 [40]: > 100 µM
- TGI [40]: > 100 µM
- GI50 [46]: > 100 µM
- TGI [46]: > 100 µM
- GI50 [48]: 5.46 µM
- TGI [48]: > 100 µM
- GI50 [49]: 2.33 µM
- TGI [49]: > 100 µM
- GI50 [50]: > 100 µM
- TGI [50]: > 100 µM

From PubChem BioAssay (NCI)
